Molecular target: CDK2 (cyclin A or cyclin E complex) (Homo sapiens (Human), UniProt P24941)
Test: CDK2 in vitro kinase assay (either cyclin A or E-dependent), SPA with biotinylated Histone H1 peptide and 33P-ATP
Assay type: biochemical
Details: Table 87
Description: Assay: • Baculovirus Constructions: Cyclins A and E were cloned into pFASTBAC (Invitrogen) by PCR, with the addition of a GluTAG sequence (EYMPME) at the amino-terminal end to allow purification on anti-GluTAG affinity columns. The expressed proteins were approximately 46 kDa (cyclin E) and 50 kDa (cyclin A) in size. CDK2 was also cloned into pFASTBAC by PCR, with the addition of a haemaglutinin epitope tag at the carboxy-terminal end ([sequence]). The expressed protein was approximately 34 kDa in size. • Enzyme Production: Recombinant baculoviruses expressing cyclins A, E and CDK2 were infected into SF9 cells at a multiplicity of infection (MOI) of 5, for 48 hrs. Cells were harvested by centrifugation at 1000 RPM for 10 minutes. Cyclin-containing (E or A) pellets were combined with CDK2 containing cell pellets and lysed on ice for 30 minutes in five times the pellet volume of lysis buffer containing 50 mM Tris pH 8.0, 0.5% NP40, 1 mM DTT and protease/phosphatase inhibitors (Roche Diagnostics GmbH, Mannheim, Germany). Mixtures were stirred for 30-60 minutes to promote cyclin-CDK2 complex formation. Mixed lysates were then spun down at 15000 RPM for 10 minutes and the supernatant retained. 5 ml of anti-GluTAG beads (for one liter of SF9 cells) were then used to capture cyclin-CDK2 complexes. Bound beads were washed three times in lysis buffer. Proteins were competitively eluted with lysis buffer containing 100-200 ug/mL of the GluTAG peptide. Eluate was dialyzed overnight in 2 liters of kinase buffer containing 50 mM Tris pH 8.0, 1 mM DTT, 10 mM MgCl2, 100 uM sodium orthovanadate and 20% glycerol. Enzyme was stored in aliquots at −70° C. • In Vitro Kinase Assay: CDK2 kinase assays (either cyclin A or E-dependent) were performed in low protein binding 96-well plates (Corning Inc, Corning, N.Y.). Enzyme was diluted to a final concentration of 50 μg/ml in kinase buffer containing 50 mM Tris pH 8.0, 10 mM MgCl2, 1 mM DTT, and 0.1 mM sodium orthovanadate. The substrate used in these reactions was a biotinylated peptide derived from Histone H1 (from Amersham, UK). The substrate was thawed on ice and diluted to 2 μM in kinase buffer. Compounds were diluted in 10% DMSO to desirable concentrations. For each kinase reaction, 20 μl of the 50 μg/ml enzyme solution (1 μg of enzyme) and 20 μl of the 1 μM substrate solution were mixed, then combined with 10 μl of diluted compound in each well for testing. […] The reaction was allowed to run for 1 hour at room temperature. The reaction was stopped by adding 200 μl of stop buffer containing 0.1% Triton X-100, 1 mM ATP, 5 mM EDTA, and 5 mg/ml streptavidine coated SPA beads (from Amersham, UK) for 15 minutes. The SPA beads were then captured onto a 96-well GF/B filter plate (Packard/Perkin Elmer Life Sciences) using a Filtermate universal harvester (Packard/Perkin Elmer Life Sciences.). Non-specific signals were eliminated by washing the beads twice with 2M NaCl then twice with 2 M NaCl with 1% phosphoric acid. The radioactive signal was then measured using a TopCount 96 well liquid scintillation counter (from Packard/Perkin Elmer Life Sciences). • IC50 Determination: Dose-response curves were plotted from inhibition data generated, each in duplicate, from 8 point serial dilutions of inhibitory compounds. Concentration of compound was plotted against % kinase activity, calculated by CPM of treated samples divided by CPM of untreated samples. To generate IC50 values, the dose-response curves were then fitted to a standard sigmoidal curve and IC50 values were derived by nonlinear regression analysis. These kinase activities were generated by using cyclin A or cyclin E using the above-described assay.

| Structure (SMILES) | IC50 |
| --- | --- |
| Clc1ccccc1-c1cc(NCc2cccnc2)n2ncc(Br)c2n1 [Example 8] | 3 nM |
| CC(C)(C)c1cc(NCc2ccncc2)n2ncc(Br)c2n1 [Example 12] | 170 nM |
| Fc1ccccc1-c1cc(NCc2cccnc2)n2ncc(Br)c2n1 [Example 4] | 11 nM |
| CC(C)c1cc(NCc2ccncc2)n2ncc(Br)c2n1 [Example 10] | 42 nM |
| Fc1ccccc1-c1cc(NCc2cccnc2)n2ncc(Cl)c2n1 [Example 5] | 21 nM |
| N#Cc1cnn2c(NCc3ccncc3)cc(-c3ccccc3)nc12 [Example 16] | 620 nM |

From patent publication US8580782B2, “Substituted pyrazolo[1,5-a]pyrimidines as cyclin dependent kinase inhibitors” (Merck Sharp & Dohme Corp., priority 2002, dated 2013)
